Data from BindingDB's records for doi:10.1007/s002109900044 (Universitat Wurzburg, 1999).
pKi: −log10 of the molar value.

Experiments:
[1] = target: T1, Adenosine receptor A1 (Homo sapiens, UniProt P30542)
T1 sequence (P30542 whole entry): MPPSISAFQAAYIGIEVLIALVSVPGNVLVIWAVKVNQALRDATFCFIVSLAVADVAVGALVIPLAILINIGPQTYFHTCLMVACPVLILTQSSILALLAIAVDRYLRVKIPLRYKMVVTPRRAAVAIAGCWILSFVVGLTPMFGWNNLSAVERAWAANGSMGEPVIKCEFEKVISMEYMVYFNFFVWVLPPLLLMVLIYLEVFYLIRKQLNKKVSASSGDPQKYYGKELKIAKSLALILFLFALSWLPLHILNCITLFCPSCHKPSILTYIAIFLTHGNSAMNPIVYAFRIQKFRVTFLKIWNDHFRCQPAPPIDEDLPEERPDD

[2] = target: Adenosine receptor A2a (Homo sapiens, UniProt P29274)
Chain of Adenosine receptor A2a (P29274 whole entry): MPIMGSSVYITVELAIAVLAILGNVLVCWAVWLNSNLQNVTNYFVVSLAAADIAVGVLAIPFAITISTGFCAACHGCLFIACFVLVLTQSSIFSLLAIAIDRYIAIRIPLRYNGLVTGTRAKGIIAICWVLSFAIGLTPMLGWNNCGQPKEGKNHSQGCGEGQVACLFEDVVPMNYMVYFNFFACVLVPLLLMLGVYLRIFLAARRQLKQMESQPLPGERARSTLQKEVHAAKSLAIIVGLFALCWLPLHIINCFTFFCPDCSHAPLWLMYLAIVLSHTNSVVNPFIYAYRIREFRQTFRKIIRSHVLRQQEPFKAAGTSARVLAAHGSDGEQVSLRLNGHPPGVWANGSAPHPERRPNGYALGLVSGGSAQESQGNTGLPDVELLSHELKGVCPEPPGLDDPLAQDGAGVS

[3] = target: T2, Adenosine receptor A3 (Homo sapiens, UniProt P0DMS8)
T2 sequence (P0DMS8 whole entry): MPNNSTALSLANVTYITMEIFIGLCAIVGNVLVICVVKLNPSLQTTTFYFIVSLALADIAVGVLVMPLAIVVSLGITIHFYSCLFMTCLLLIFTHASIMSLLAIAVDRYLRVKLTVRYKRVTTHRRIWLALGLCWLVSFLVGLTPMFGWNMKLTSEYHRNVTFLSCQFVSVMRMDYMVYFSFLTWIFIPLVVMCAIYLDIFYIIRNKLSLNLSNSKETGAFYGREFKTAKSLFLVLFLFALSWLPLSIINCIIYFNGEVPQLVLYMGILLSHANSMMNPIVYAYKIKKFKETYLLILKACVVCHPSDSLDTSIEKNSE

Row | SMILES | pKi [1] | pKi [2] | pKi [3]
1 | CCNC(=O)C1OC(n2cnc3c(N)nc(C#CCOc4ccccc4)nc32)C(O)C1O (stereo not given) [2-substituted NECA derivatives, 8] | 8.10 | 6.74 | 7.85
2 | CCNC(=O)C1OC(n2cnc3c(N)nc(C#Cc4ccc(CCC(=O)O)cc4)nc32)C(O)C1O (stereo not given) [3-{4-[6-Amino-9-(5-ethylcarbamoyl-3,4-dihydroxy-tetrahydro-furan-2-yl)-9H-purin-2-ylethynyl]-phenyl}-propionic acid] | 6.00 | 5.66 | 7.38
3 | CCNC(=O)C1OC(n2cnc3c(N)nc(C#CC4=CCCCC4)nc32)C(O)C1O (stereo not given) [5-(6-Amino-2-cyclohex-1-enylethynyl-purin-9-yl)-3,4-dihydroxy-tetrahydro-furan-2-carboxylic acid ethylamide] | 7.06 | 7.00 | 7.55
4 | CCNC(=O)C1OC(n2cnc3c(N)nc(C#Cc4ccccc4)nc32)C(O)C1O (stereo not given) [5-(6-Amino-2-phenylethynyl-purin-9-yl)-3,4-dihydroxy-tetrahydro-furan-2-carboxylic acid ethylamide] | 6.25 | 6.21 | 8.21
5 | CCNC(=O)C1OC(n2cnc3c(N)nc(C#Cc4nccs4)nc32)C(O)C1O (stereo not given) [5-(6-Amino-2-thiazol-2-ylethynyl-purin-9-yl)-3,4-dihydroxy-tetrahydro-furan-2-carboxylic acid ethylamide] | 7.92 |  | 8.43
6 | CCNC(=O)C1OC(n2cnc3c(N)nc(C#CC(C)(O)c4ccccc4)nc32)C(O)C1O (stereo not given) [5-[6-Amino-2-(3-hydroxy-3-phenyl-but-1-ynyl)-purin-9-yl]-3,4-dihydroxy-tetrahydro-furan-2-carboxylic acid ethylamide] | 8.03 | 7.25 | 8.62
7 | CCNC(=O)C1OC(n2cnc3c(N)nc(C#CC(C)O)nc32)C(O)C1O (stereo not given) [5-[6-Amino-2-(3-hydroxy-but-1-ynyl)-purin-9-yl]-3,4-dihydroxy-tetrahydro-furan-2-carboxylic acid ethylamide] | 8.48 | 7.85 | 8.82
8 | CCNC(=O)C1OC(n2cnc3c(N)nc(C#CCC(C)O)nc32)C(O)C1O (stereo not given) [5-[6-Amino-2-(4-hydroxy-pent-1-ynyl)-purin-9-yl]-3,4-dihydroxy-tetrahydro-furan-2-carboxylic acid ethylamide] | 7.40 | 7.85 | 8.39
9 | CCNC(=O)C1OC(n2cnc3c(N)nc(C#CCCCC#N)nc32)C(O)C1O (stereo not given) [5-[6-Amino-2-(5-cyano-pent-1-ynyl)-purin-9-yl]-3,4-dihydroxy-tetrahydro-furan-2-carboxylic acid ethylamide] | 7.42 | 7.60 | 8.33
10 | CCNC(=O)C1OC(n2cnc3c(N)nc(C#CCCCc4ccccc4)nc32)C(O)C1O (stereo not given) [5-[6-Amino-2-(5-phenyl-pent-1-ynyl)-purin-9-yl]-3,4-dihydroxy-tetrahydro-furan-2-carboxylic acid ethylamide] | 6.74 |  | 7.57
11 | CCNC(=O)C1OC(n2cnc3c(N)nc(C#Cc4ccc(C(N)=O)cc4)nc32)C(O)C1O (stereo not given) [5-{6-amino-2-[2-(4-carbamoylphenyl)ethynyl]-9H-purin-9-yl}-N-ethyl-3,4-dihydroxyoxolane-2-carboxamide] | 6.70 | 6.33 | 8.03
12 | CCNC(=O)C1OC(n2cnc3c(N)nc(C#Cc4ccco4)nc32)C(O)C1O (stereo not given) [5-{6-amino-2-[2-(furan-2-yl)ethynyl]-9H-purin-9-yl}-N-ethyl-3,4-dihydroxyoxolane-2-carboxamide] | 6.85 | 6.29 | 7.92
13 | CCNC(=O)[C@H]1O[C@@H](n2cnc3c(N)nc(C#C[C@@H](O)c4ccccc4)nc32)[C@H](O)[C@@H]1O [6R, (R)-PHPNECA] | 8.72 | 7.41 | 8.26
14 | CCNC(=O)C1OC(n2cnc3c(N)nc(C#C[C@H](O)c4ccccc4)nc32)C(O)C1O (stereo partly drawn) [6S, (S)-PHPNECA] | 8.68 | 8.70 | 9.12
15 | CCCCC#Cc1nc(N)c2ncn([C@@H]3O[C@H](C(=O)NCC)[C@H](O)C3O)c2n1 (stereo partly drawn) [(2S,3R,5R)-5-[6-amino-2-(hex-1-yn-1-yl)-9H-purin-9-yl]-N-ethyl-3,4-dihydroxyoxolane-2-carboxamide] |  | 8.19 | 8.62
16 | CCNC(=O)C1OC(n2cnc3c(N)nc(C#CC(O)c4ccccc4)nc32)C(O)C1O (stereo not given) [R,S-PHPNECA] | 8.57 | 8.51 | 9.38
